The supplement of paper PMC10307832

Columns and labels:
Experiment in all cases: relative viability (nuclei count vs DMSO), 5 days (fraction); higher = more cells survive
NCI-H1793 = tested on: NCI-H1793
Outline: (§1)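 Medians of duplicate plates are given as relative viability. That measure is the nuclei count in treated wells divided by the count in vehicle wells. Counts were taken on 4× images of lung cancer cell lines in 1536-well plates, 5 days after pin-tool dosing the day after seeding with one drug alone or a fixed anchor-drug dose plus five library-drug doses (not always all listed) in √10 steps.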

NCI-H460 = tested on: NCI-H460
Outline: as §1

NCI-H358 = tested on: NCI-H358
Outline: as §1

CAL-12T = tested on: CAL-12T
Outline: as §1

NCI-H2085 = tested on: NCI-H2085
Outline: as §1

LOU-NH91 = tested on: LOU-NH91
Outline: as §1

NCI-H838 = tested on: NCI-H838
Outline: as §1

NCI-H1437 = tested on: NCI-H1437
Outline: as §1

NCI-H1651 = tested on: NCI-H1651
Outline: as §1

LU99A = tested on: LU99A
Outline: as §1

BEN = tested on: BEN
Outline: as §1

NCI-H1975 = tested on: NCI-H1975
Outline: as §1

NCI-H1734 = tested on: NCI-H1734
Outline: as §1

NCI-H1355 = tested on: NCI-H1355
Outline: as §1

HCC-366 = tested on: HCC-366
Outline: as §1

NCI-H2342 = tested on: NCI-H2342
Outline: as §1

NCI-H441 = tested on: NCI-H441
Outline: as §1

SK-LU-1 = tested on: SK-LU-1
Outline: as §1

NCI-H2023 = tested on: NCI-H2023
Outline: as §1

NCI-H1650 = tested on: NCI-H1650
Outline: as §1

COR-L23 = tested on: COR-L23
Outline: as §1

Structure (SMILES): CCN(CC)CCCCNc1ncc2cc(-c3cc(OC)cc(OC)c3)c(NC(=O)NC(C)(C)C)nc2n1 + NC(=O)Nc1cc(-c2cccc(F)c2)sc1C(=O)N[C@H]1CCCNC1 [AZD7762] (partner 0.2 µM)
- relative viability (NCI-H1793; first compound 0.01 µM): 0.541
- relative viability (NCI-H1793; first compound 0.03162 µM): 0.581
- relative viability (NCI-H1793; first compound 0.1 µM): 0.601
- relative viability (NCI-H1793; first compound 0.3162 µM): 0.326
- relative viability (NCI-H1793; first compound 1 µM): 0.319
- relative viability (NCI-H460; first compound 0.01 µM): 0.607
- relative viability (NCI-H460; first compound 0.03162 µM): 0.739
- relative viability (NCI-H460; first compound 0.1 µM): 0.716
- relative viability (NCI-H460; first compound 0.3162 µM): 0.821
- relative viability (NCI-H460; first compound 1 µM): 0.4
- relative viability (NCI-H358; first compound 0.01 µM): 0.444
- relative viability (NCI-H358; first compound 0.03162 µM): 0.52
- relative viability (NCI-H358; first compound 0.1 µM): 0.593
- relative viability (NCI-H358; first compound 0.3162 µM): 0.64
- relative viability (NCI-H358; first compound 1 µM): 0.395
- relative viability (CAL-12T; first compound 0.01 µM): 0.594
- relative viability (CAL-12T; first compound 0.03162 µM): 0.564
- relative viability (CAL-12T; first compound 0.1 µM): 0.796
- relative viability (CAL-12T; first compound 0.3162 µM): 0.758
- relative viability (CAL-12T; first compound 1 µM): 0.641
- relative viability (NCI-H2085; first compound 0.01 µM): 0.991
- relative viability (NCI-H2085; first compound 0.03162 µM): 1.05
- relative viability (NCI-H2085; first compound 0.1 µM): 1.05
- relative viability (NCI-H2085; first compound 0.3162 µM): 1.04
- relative viability (NCI-H2085; first compound 1 µM): 0.912
- relative viability (LOU-NH91; first compound 0.01 µM): 0.783
- relative viability (LOU-NH91; first compound 0.03162 µM): 0.768
- relative viability (LOU-NH91; first compound 0.1 µM): 0.828
- relative viability (LOU-NH91; first compound 0.3162 µM): 0.845
- relative viability (LOU-NH91; first compound 1 µM): 0.794
- relative viability (NCI-H838; first compound 0.01 µM): 0.734
- relative viability (NCI-H838; first compound 0.03162 µM): 0.956
- relative viability (NCI-H838; first compound 0.1 µM): 0.992
- relative viability (NCI-H838; first compound 0.3162 µM): 1.1
- relative viability (NCI-H838; first compound 1 µM): 0.76
- relative viability (NCI-H1437; first compound 0.01 µM): 1.2
- relative viability (NCI-H1437; first compound 0.03162 µM): 1.07
- relative viability (NCI-H1437; first compound 0.1 µM): 1.17
- relative viability (NCI-H1437; first compound 0.3162 µM): 1.17
- relative viability (NCI-H1437; first compound 1 µM): 1.04
- relative viability (NCI-H1651; first compound 0.01 µM): 0.444
- relative viability (NCI-H1651; first compound 0.03162 µM): 0.508
- relative viability (NCI-H1651; first compound 0.1 µM): 0.497
- relative viability (NCI-H1651; first compound 0.3162 µM): 0.608
- relative viability (NCI-H1651; first compound 1 µM): 0.397
- relative viability (LU99A; first compound 0.01 µM): 0.325
- relative viability (LU99A; first compound 0.03162 µM): 0.486
- relative viability (LU99A; first compound 0.1 µM): 0.323
- relative viability (LU99A; first compound 0.3162 µM): 0.35
- relative viability (LU99A; first compound 1 µM): 0.289
- relative viability (BEN; first compound 0.01 µM): 0.669
- relative viability (BEN; first compound 0.03162 µM): 0.61
- relative viability (BEN; first compound 0.1 µM): 0.703
- relative viability (BEN; first compound 0.3162 µM): 0.757
- relative viability (BEN; first compound 1 µM): 0.676
- relative viability (NCI-H1975; first compound 0.01 µM): 0.684
- relative viability (NCI-H1975; first compound 0.03162 µM): 0.676
- relative viability (NCI-H1975; first compound 0.1 µM): 0.776
- relative viability (NCI-H1975; first compound 0.3162 µM): 0.818
- relative viability (NCI-H1975; first compound 1 µM): 0.601
- relative viability (NCI-H1734; first compound 0.01 µM): 0.534
- relative viability (NCI-H1734; first compound 0.03162 µM): 0.593
- relative viability (NCI-H1734; first compound 0.1 µM): 0.52
- relative viability (NCI-H1734; first compound 0.3162 µM): 0.604
- relative viability (NCI-H1734; first compound 1 µM): 0.486
- relative viability (NCI-H1355; first compound 0.01 µM): 0.809
- relative viability (NCI-H1355; first compound 0.03162 µM): 0.776
- relative viability (NCI-H1355; first compound 0.1 µM): 0.766
- relative viability (NCI-H1355; first compound 0.3162 µM): 0.801
- relative viability (NCI-H1355; first compound 1 µM): 0.515
- relative viability (HCC-366; first compound 0.01 µM): 0.256
- relative viability (HCC-366; first compound 0.03162 µM): 0.462
- relative viability (HCC-366; first compound 0.1 µM): 0.277
- relative viability (HCC-366; first compound 0.3162 µM): 0.289
- relative viability (HCC-366; first compound 1 µM): 0.247
- relative viability (NCI-H2342; first compound 0.01 µM): 0.44
- relative viability (NCI-H2342; first compound 0.03162 µM): 0.511
- relative viability (NCI-H2342; first compound 0.1 µM): 0.482
- relative viability (NCI-H2342; first compound 0.3162 µM): 0.558
- relative viability (NCI-H2342; first compound 1 µM): 0.485
- relative viability (NCI-H441; first compound 0.01 µM): 1.16
- relative viability (NCI-H441; first compound 0.03162 µM): 1.16
- relative viability (NCI-H441; first compound 0.1 µM): 1.1
- relative viability (NCI-H441; first compound 0.3162 µM): 1.39
- relative viability (NCI-H441; first compound 1 µM): 0.921

Structure (SMILES): COc1nc(C)cnc1NS(=O)(=O)c1cccnc1-c1ccc(-c2nnco2)cc1 [Zibotentan] + CC1(C)CCC(c2ccc(Cl)cc2)=C(CN2CCN(c3ccc(C(=O)NS(=O)(=O)c4ccc(N[C@H](CCN5CCOCC5)CSc5ccccc5)c(S(=O)(=O)C(F)(F)F)c4)cc3)CC2)C1 [Navitoclax] (partner 0.5 µM)
- relative viability (NCI-H1793; first compound 0.08 µM): 0.506
- relative viability (NCI-H1793; first compound 0.253 µM): 0.405
- relative viability (NCI-H1793; first compound 0.8 µM): 0.414
- relative viability (NCI-H1793; first compound 2.53 µM): 0.486
- relative viability (SK-LU-1; first compound 0.08 µM): 0.911
- relative viability (SK-LU-1; first compound 0.253 µM): 0.683
- relative viability (SK-LU-1; first compound 0.8 µM): 1.04
- relative viability (SK-LU-1; first compound 2.53 µM): 0.781
- relative viability (NCI-H460; first compound 0.08 µM): 1.41
- relative viability (NCI-H460; first compound 0.8 µM): 1.14
- relative viability (NCI-H460; first compound 2.53 µM): 1.23
- relative viability (CAL-12T; first compound 0.08 µM): 1.27
- relative viability (CAL-12T; first compound 0.253 µM): 1
- relative viability (CAL-12T; first compound 0.8 µM): 1.45
- relative viability (CAL-12T; first compound 2.53 µM): 1.06
- relative viability (NCI-H2085; first compound 0.08 µM): 1.23
- relative viability (NCI-H2085; first compound 0.253 µM): 1.08
- relative viability (NCI-H2085; first compound 0.8 µM): 1.28
- relative viability (NCI-H2085; first compound 2.53 µM): 1.27
- relative viability (LOU-NH91; first compound 0.08 µM): 0.693
- relative viability (LOU-NH91; first compound 0.253 µM): 0.635
- relative viability (LOU-NH91; first compound 0.8 µM): 0.812
- relative viability (LOU-NH91; first compound 2.53 µM): 0.66
- relative viability (NCI-H838; first compound 0.08 µM): 1.15
- relative viability (NCI-H838; first compound 0.253 µM): 1.1
- relative viability (NCI-H838; first compound 0.8 µM): 1.18
- relative viability (NCI-H838; first compound 2.53 µM): 1.24
- relative viability (NCI-H1437; first compound 0.08 µM): 1.12
- relative viability (NCI-H1437; first compound 0.253 µM): 1.04
- relative viability (NCI-H1437; first compound 0.8 µM): 1.07
- relative viability (NCI-H1437; first compound 2.53 µM): 1.17
- relative viability (NCI-H1651; first compound 0.08 µM): 1.08
- relative viability (NCI-H1651; first compound 0.253 µM): 0.875
- relative viability (NCI-H1651; first compound 0.8 µM): 1
- relative viability (NCI-H1651; first compound 2.53 µM): 1.11
- relative viability (LU99A; first compound 0.08 µM): 0.753
- relative viability (LU99A; first compound 0.253 µM): 0.768
- relative viability (LU99A; first compound 0.8 µM): 0.791
- relative viability (LU99A; first compound 2.53 µM): 0.869
- relative viability (NCI-H2023; first compound 0.08 µM): 1.05
- relative viability (NCI-H2023; first compound 0.253 µM): 0.922
- relative viability (NCI-H2023; first compound 0.8 µM): 1.01
- relative viability (NCI-H2023; first compound 2.53 µM): 1.1
- relative viability (BEN; first compound 0.08 µM): 0.0813
- relative viability (BEN; first compound 0.253 µM): 0.0646
- relative viability (BEN; first compound 0.8 µM): 0.059
- relative viability (BEN; first compound 2.53 µM): 0.0664
- relative viability (NCI-H1975; first compound 0.08 µM): 1.13
- relative viability (NCI-H1975; first compound 0.253 µM): 1.05
- relative viability (NCI-H1975; first compound 0.8 µM): 1.05
- relative viability (NCI-H1975; first compound 2.53 µM): 1.02
- relative viability (NCI-H1650; first compound 0.08 µM): 1.26
- relative viability (NCI-H1650; first compound 0.8 µM): 1.36
- relative viability (NCI-H1650; first compound 2.53 µM): 1.09
- relative viability (NCI-H1734; first compound 0.08 µM): 0.906
- relative viability (NCI-H1734; first compound 0.253 µM): 0.881
- relative viability (NCI-H1734; first compound 0.8 µM): 0.822
- relative viability (NCI-H1734; first compound 2.53 µM): 0.897
- relative viability (NCI-H1355; first compound 0.08 µM): 0.991
- relative viability (NCI-H1355; first compound 0.253 µM): 0.968
- relative viability (NCI-H1355; first compound 0.8 µM): 0.928
- relative viability (NCI-H1355; first compound 2.53 µM): 1.1
- relative viability (HCC-366; first compound 0.08 µM): 1.12
- relative viability (HCC-366; first compound 0.253 µM): 1.14
- relative viability (HCC-366; first compound 0.8 µM): 1.15
- relative viability (HCC-366; first compound 2.53 µM): 1.06
- relative viability (COR-L23; first compound 0.08 µM): 1.03
- relative viability (COR-L23; first compound 0.253 µM): 1.08
- relative viability (COR-L23; first compound 0.8 µM): 1.07
- relative viability (COR-L23; first compound 2.53 µM): 1.01
- relative viability (NCI-H441; first compound 0.08 µM): 0.635
- relative viability (NCI-H441; first compound 0.8 µM): 0.794
- relative viability (NCI-H441; first compound 2.53 µM): 0.877
